This passage reports HC50 results from ChEMBL document CHEMBL1159350, “Hemolytic steroid disulfates from the far eastern starfish Pteraster pulvillus” (J Nat Prod, 2003).

The structures appear in SMILES notation.

A short description of the series: Toxicity in mouse erythrocytes assessed as hemolytic activity. Format: cell-based, Erythrocyte.

One may read the HC50 as the concentration giving 50% haemolysis. Take `CC(C)CCC[C@@H](COS(=O)(=O)O)[C@H]1CC[C@H]2[C@@H]3CC=C4C[C@H](OS(=O)(=O)O)CC[C@]4(C)[C@H]3CC[C@]12C.NCCc1ccc(O)cc1`: the HC50 worked out at 33 µM.
As for `CC(C)CCC[C@@H](COS(=O)(=O)O)[C@H]1CC[C@H]2[C@@H]3CC[C@H]4C[C@H](OS(=O)(=O)O)CC[C@]4(C)[C@H]3CC[C@]12C`, the HC50 stood at 10 µM.
In the case of `CC(C)CCC[C@@H](COS(=O)(=O)O)[C@H]1CC[C@H]2[C@@H]3CC[C@H]4[C@@H](O)[C@H](OS(=O)(=O)O)CC[C@]4(C)[C@H]3CC[C@]12C`, the HC50 came to 45 µM.
In the case of `CC(C)CCC[C@@H](COS(=O)(=O)O)[C@H]1CC[C@H]2[C@@H]3CC[C@H]4C[C@H](OS(=O)(=O)O)CC[C@]4(C)[C@H]3CC[C@]12C.NCCc1ccc(O)cc1.NCCc1ccc(O)cc1`, the concentration for 50% haemolysis (HC50) is 18 µM.
For the compound `CC(C)CCC[C@@H](COS(=O)(=O)O)[C@H]1CC[C@H]2[C@@H]3CC=C4[C@@H](O)[C@H](OS(=O)(=O)O)CC[C@]4(C)[C@H]3CC[C@]12C`, the HC50 stood at 80 µM.
